# Data from US7521454B2 (Dainippon Sumitomo Pharma Co., Ltd., priority 2001, dated 2009).
# How the values were obtained:
# [1] = Solubility in citric acid/disodium phosphate buffers; conditions: thermodynamic from solid
# Description: 5.53% citric acid (monohydrate) and 1.75% disodium phosphate (anhydrous) were mixed together to prepare buffers (pH 2.5, 5.5, 7.4). A compound was added thereto, the mixture was stirred in a vortex mixer and subjected to ultrasonication for 30 minutes. Thereafter, the resultant was stirred in a vortex mixer again and then centrifuged at 15,000 rpm for 20 minutes. The levels of the compounds in the supernatants were then quantified by HPLC.
# Renca cells = experiment: Antitumor effect in tumor-bearing mouse model (Renca); type: in vivo; conditions: Renca in BALB/c mice, 5 times every 4 days
# Description: Murine renal adenocarcinoma-derived Renca cells (obtained from Iwate Medical University) were intradermally transplanted to the left ventral portions of 6-week-old BALB/c male mice (Charles River Japan, Inc.) at 5×10^4 cells/0.05 ml/mouse. Their body weights were measured on the next day, and they were divided into 5 groups (each group comprising 6 mice) in such a manner that the average body weights were substantially the same among groups. Vehicles (an aqueous solution of 0.5% carboxymethylcellulose (hereinafter referred to as “CMC-Na”)) and the compound of Example 27 (1 mg/kg and 3 mg/kg) were forcibly administered orally using an oral Sonde (10 ml/kg). Mouse interferon a (hereinafter referred to as “mIFN-α”) was intradermally administered to mice through their backs in amounts of 1×10^4 U/0.1 ml and 5×10^4 U/0.1 ml per mouse. Administration was carried out 5 times every 4 days. The longer diameter (L, mm) and the shorter diameter (W, mm) of the generated tumors were measured twice a week, and the tumor volumes (V, mm^3) were calculated (V=L×W^2). Also, significant difference was examined in accordance with Steel's multiple comparison. […]
# A surveillance period of about 30 days after the transplantation was provided, the tumor volume and the body weight were monitored, and an antitumor effect against the Renca cells was evaluated. […]
# mouse spleen cell = experiment: cells; type: cell-based; conditions: Mus musculus, 24 h, read-out: Interferon-inducing activity: Minimum effective concentration
# IL-5 production = experiment: Inhibitory activity against Th2 cytokine produced from sensitized spleen cells: IL-5; type: cell-based, mouse; conditions: Mus musculus, 72 h, OVA-sensitized BALB/c spleen cells, 3 days, read-out: Inhibitory activity against IL-5 production
# Outline: (§1)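 BALB/c mice immunized i.p. with 10 μg ovalbumin on alum, boosted at day 14; spleen cells taken 7 days later. Cells (5×10^6/well) restimulated with ovalbumin 0.5 mg/ml plus test compound, cultured 3 days at 37° C, 5% CO2. Supernatant cytokine quantified by ELISA.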
# [2] = Gastrointestinal absorption in rat (drug level in blood by HPLC); type: in vivo; conditions: blood, dose 3 mg/kg oral, SD male rat
# Description: A test compound was suspended in an aqueous solution of 0.5% carboxymethylcellulose, and the resulting suspension was orally administered to an SD male rat. Blood was sampled with the elapse of time, and the level of the drug in blood was assayed by HPLC.
# OV2944-HM-1 cells = experiment: Antitumor effect in mouse model of spontaneous metastasis (OV2944-HM-1); type: in vivo; conditions: 35 days after transplantation, Example 27 3 mg/kg oral, mIFN-α 5×10^4 U intradermal
# Description: OV2944-HM-1 cells (obtained from Hiroshima University) derived from mouse ovarian cancer that is highly metastatic to the lymph nodes were intradermally transplanted to the buttocks of 6-week-old B6C3F1 female mice (Charles River Japan, Inc.) in amounts of 1×10^6 cells/0.05 ml/mouse. Ten days after the transplantation, the primary tumor was excised under Nembutal anaesthesia. Adhesives (Aron Alpha) were applied to the excised portions, and the stumps were sewed up with wound clips. The next day, body weights were measured, and they were divided into 3 groups (each group comprising 6 mice) in such a manner that the average body weights among groups were substantially the same. Vehicles (aqueous solutions of 0.5% CMC-Na) and the compound of Example 27 (3 mg/kg) were forcibly administered orally using an oral Sonde (10 ml/kg). Also, 5×10^4 U/0.1 ml/mouse of mIFN-α was intradermally administered through their backs. Administration was carried out 5 times every 4 days. Regional lymph nodes (mouse cervical, brachium, axillary cavity) were extirpated 35 days after the transplantation, and their wet weights were measured. Simultaneously, lungs were extirpated to visually inspect the metastasis. Also, significant difference was examined in accordance with Steel's multiple comparison. The SAS system for Windows Release 8.01 (SAS Institute Inc., Cary, N.C., U.S.A.) was used for the examination.
# Thus, pulmonary metastasis was examined.
# male cynomolgus monkeys = experiment: Interferon-inducing activity in cynomolgus monkey (in vivo), serum interferon titer and vomition; conditions: cynomolgus monkey, in vivo
# [3] = tested on: human peripheral blood mononuclear cells (PBMC); experiment: Interferon-inducing activity in human peripheral blood mononuclear cells (PBMC), IFN-α ELISA; type: cell-based; conditions: 24 h;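 further: IFN-α in pg/ml with a 1.25 pg/ml detection limit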
# Description: Peripheral bloods were sampled from 5 healthy volunteers using a syringe containing heparin, and peripheral blood mononuclear cells (PBMC) were prepared by density gradient centrifugation utilizing the Lymphoprep™ (NYCOMED PHARMA AS). PBMCs were washed twice in serum-free RPMI 1640 medium and adjusted at 1×10^6 cells/ml in RPMI 1640 medium comprising 10% fetal bovine serum. The product was cultured in the presence of a test compound dissolved in dimethyl sulfoxide (final concentration: 0.1%) in an incubator in the presence of 5% CO^2 at 37° C. for 24 hours. As a control, 0.1% dimethyl sulfoxide containing no test compound was used. The culture supernatant was aseptically collected by filtration. Thereafter, the supernatant was cryopreserved at −20° C. or lower until it was subjected to the assay for IFN-inducing activity. Human IFN-α in the culture supernatant was quantified using a highly sensitive ELISA system (Amersham).
# IL-4 production = experiment: Inhibitory activity against Th2 cytokine produced from sensitized spleen cells: IL-4; type: cell-based, mouse; conditions: Mus musculus, 72 h, OVA-sensitized BALB/c spleen cells, 3 days, read-out: Inhibitory activity against IL-4 production
# Outline: as §1
# Balb/c male mouse = experiment: Interferon-inducing activity in mouse (in vivo), serum interferon titer after oral dosing; conditions: serum 2 h after dosing, Balb/c mouse
smiles,measurement,setting,value
"CCCCNc1nc(N)c2nc(O)n(Cc3ccc(C)nc3)c2n1 [Example 27, 2-Butylamino-8-hydroxy-9-(6-methyl-3-pyridylmethyl)adenine]",solubility at 30 min,"[1]; pH 2.5, aqueous buffer",610 µg/mL
same,solubility at 30 min,"[1]; pH 5.5, aqueous buffer",5 µg/mL
same,solubility at 30 min,"[1]; pH 7.4, aqueous buffer",2 µg/mL
same,antitumor effect compared with mIFN-α,Renca cells; 1 and 3 mg/kg oral,equivalent to or higher than that attained by the administration of mIFN-α
same,tumor volume compared with the vehicle group,"Renca cells; Example 27 1 and 3 mg/kg oral, mIFN-α 1×10^4 and 5×10^4 U intradermal, P<0.05",significantly smaller
same,minimal effective concentration,mouse spleen cell,0.003 µM
same,activity at 0.001 µM,IL-5 production; concentration 1 nM,68%
same,activity at 0.01 µM,IL-5 production; concentration 10 nM,20%
same,activity at 0.1 µM,IL-5 production; concentration 100 nM,12%
same,Cmax,[2]; read-out: Cmax,565 ng/mL
same,Tmax,[2]; read-out: Tmax,30 min
same,"pulmonary metastasis (visual inspection), in words",OV2944-HM-1 cells,not observed at all
same,lymph node metastasis (wet weight of metastasis lymph nodes vs vehicle group),"OV2944-HM-1 cells; B6C3F1 mice, 5 times every 4 days",smaller than those attained from the group to which vehicles were administered
same,The number of mice which exhibited pulmonary metastasis in 6 mice,OV2944-HM-1 cells; visual inspection,0
same,interferon titer in blood serum (average±SE),male cynomolgus monkeys,"14,488±6365 U/ml"
same,Interferon-inducing activity (human IFN-α in culture supernatant),[3]; concentration 1 nM,6 ± 3 pg/mL
same,Interferon-inducing activity (human IFN-α in culture supernatant),[3]; concentration 3 nM,26 ± 22 pg/mL
same,Interferon-inducing activity (human IFN-α in culture supernatant),[3]; concentration 10 nM,56 ± 37 pg/mL
same,Interferon-inducing activity (human IFN-α in culture supernatant),[3]; concentration 30 nM,59 ± 33 pg/mL
same,activity at 0.001 µM,IL-4 production; concentration 1 nM,30%
same,activity at 0.01 µM,IL-4 production; concentration 10 nM,1%
same,activity at 0.1 µM,IL-4 production; concentration 100 nM,< 1%
same,Interferon-inducing activity,Balb/c male mouse; dosage 0.03 mg/kg oral,14 ± 3 U/ml
same,Interferon-inducing activity,Balb/c male mouse; dosage 0.1 mg/kg oral,324 ± 66 U/ml
same,Interferon-inducing activity,Balb/c male mouse; dosage 0.3 mg/kg oral,804 ± 274 U/ml
